# According to patent US12077503B2, “Substituted cyclic amides and their use as herbicides” (FMC CORPORATION, priority 2015, dated 2024):
# How the values were obtained:
# Type in all cases: in vivo
# [1] = system: Kochia (Kochia scoparia); experiment: Test A preemergence; settings: Bassia scoparia, pre-emergence, 240 h, preemergence, read-out: Plant response rating, Kochia; for pest or weed control at 125 g/ha: 125 g ai/ha, visual rating after approx. 10 d, 0 to 100 scale where 0 is no effect and 100 is complete control; for pest or weed control at 500 g/ha: 500 g ai/ha, 0 to 100 scale, 0 = no effect, 100 = complete control
# Outline: (§1)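 Preemergence directed soil spray on seeded pots, or postemergence application to plants 2–10 cm, one- to two-leaf. Solvent mixture non-phytotoxic, with surfactant. Scored ~10 d later, visually, 0–100 vs untreated.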
# [2] = system: barnyardgrass (Echinochloa crus-galli); experiment: Test A preemergence; settings: Echinochloa crus-galli, pre-emergence, 240 h, preemergence, read-out: Plant response rating, Barnyardgrass; for pest or weed control at 125 g/ha: 125 g ai/ha, visual rating after approx. 10 d, 0 to 100 scale where 0 is no effect and 100 is complete control; for pest or weed control at 500 g/ha: 500 g ai/ha, 0 to 100 scale, 0 = no effect, 100 = complete control
# Outline: as §1
# [3] = system: giant foxtail (Setaria faberii); experiment: Test A preemergence; settings: Setaria faberi, pre-emergence, 240 h, preemergence, read-out: Plant response rating, Foxtail, Giant; for pest or weed control at 125 g/ha: 125 g ai/ha, visual rating after approx. 10 d, 0 to 100 scale where 0 is no effect and 100 is complete control; for pest or weed control at 500 g/ha: 500 g ai/ha, 0 to 100 scale, 0 = no effect, 100 = complete control
# Outline: as §1
# [4] = system: pigweed (Amaranthus retroflexus); experiment: Test A preemergence; settings: Amaranthus retroflexus, pre-emergence, 240 h, preemergence, read-out: Plant response rating, Pigweed; for pest or weed control at 125 g/ha: 125 g ai/ha, visual rating after approx. 10 d, 0 to 100 scale where 0 is no effect and 100 is complete control; for pest or weed control at 500 g/ha: 500 g ai/ha, 0 to 100 scale, 0 = no effect, 100 = complete control
# [5] = system: ragweed (common ragweed, Ambrosia elatior); experiment: Test A preemergence; settings: Ambrosia artemisiifolia, pre-emergence, 240 h, preemergence, read-out: Plant response rating, Ragweed; for pest or weed control at 125 g/ha: 125 g ai/ha, visual rating after approx. 10 d, 0 to 100 scale where 0 is no effect and 100 is complete control; for pest or weed control at 500 g/ha: 500 g ai/ha, 0 to 100 scale, 0 = no effect, 100 = complete control
# Outline: as §1
# [6] = system: ryegrass, Italian (Italian ryegrass, Lolium multiflorum); experiment: Test A preemergence; settings: Lolium multiflorum, pre-emergence, 240 h, 125 g ai/ha, preemergence; visual rating after approx. 10 d; 0 to 100 scale where 0 is no effect and 100 is complete control; read-out: Plant response rating, Ryegrass, Italian
# Outline: as §1
# [7] = system: Kochia (Kochia scoparia); experiment: Test A postemergence; settings: Bassia scoparia, post-emergence, 240 h, 125 g ai/ha, postemergence; visual injury after approximately 10 d; 0 to 100 scale (0 no effect, 100 complete control); read-out: Plant response rating, Kochia
# Outline: as §1
# [8] = system: blackgrass (Alopecurus myosuroides); experiment: Test A postemergence; settings: Alopecurus myosuroides, post-emergence, 240 h, 125 g ai/ha, postemergence; visual injury after approximately 10 d; 0 to 100 scale (0 no effect, 100 complete control); read-out: Plant response rating, Blackgrass
# Outline: as §1
# [9] = system: giant foxtail (Setaria faberii); experiment: Test A postemergence; settings: Setaria faberi, post-emergence, 240 h, 125 g ai/ha, postemergence; visual injury after approximately 10 d; 0 to 100 scale (0 no effect, 100 complete control); read-out: Plant response rating, Foxtail, Giant
# Outline: as §1
# [10] = system: ryegrass, Italian (Italian ryegrass, Lolium multiflorum); experiment: Test A postemergence; settings: Lolium multiflorum, post-emergence, 240 h, 125 g ai/ha, postemergence; visual injury after approximately 10 d; 0 to 100 scale (0 no effect, 100 complete control); read-out: Plant response rating, Ryegrass, Italian
# Outline: as §1
# [11] = system: barnyardgrass (Echinochloa crus-galli); experiment: Test B flooded paddy test; settings: Echinochloa crus-galli, Flood, 250 g ai/ha; scale of 0 to 100 where 0 is no effect and 100 is complete control; read-out: Barnyardgrass plant response rating
# Outline: (§2)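 Flooding to 3 cm over soil accompanied treatment, which consisted of adding compound to the standing water around 2-leaf plants; depth was then maintained. Visual assessment versus controls followed at 13 to 15 d (scale 0–100, 0 meaning no effect).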
# [12] = system: ducksalad (Heteranthera limosa); experiment: Test B flooded paddy test; settings: Heteranthera limosa, Flood, 250 g ai/ha; scale of 0 to 100 where 0 is no effect and 100 is complete control; read-out: Ducksalad plant response rating
# Outline: as §2
# [13] = system: rice (Oryra sativa); experiment: Test B flooded paddy test; settings: Oryza sativa, Flood, 250 g ai/ha; scale of 0 to 100 where 0 is no effect and 100 is complete control; read-out: Rice plant response rating
# Outline: as §2
# [14] = system: sedge, umbrella (small-flower umbrella sedge, Cyperus difformis); experiment: Test B flooded paddy test; settings: Cyperus difformis, Flood, 250 g ai/ha; scale of 0 to 100 where 0 is no effect and 100 is complete control; read-out: Sedge, Umbrella plant response rating
# Outline: as §2
Compound,pest or weed control at 125 g/ha [1] [%],pest or weed control at 500 g/ha [1] [%],pest or weed control at 125 g/ha [2] [%],pest or weed control at 500 g/ha [2] [%],pest or weed control at 125 g/ha [3] [%],pest or weed control at 500 g/ha [3] [%],pest or weed control at 125 g/ha [4] [%],pest or weed control at 500 g/ha [4] [%],pest or weed control at 125 g/ha [5] [%],pest or weed control at 500 g/ha [5] [%],pest or weed control at 125 g/ha [6] [%],pest or weed control at 125 g/ha [7] [%],pest or weed control at 125 g/ha [8] [%],pest or weed control at 125 g/ha [9] [%],pest or weed control at 125 g/ha [10] [%],pest or weed control at 250 g/ha [11] [%],pest or weed control at 250 g/ha [12] [%],pest or weed control at 250 g/ha [13] [%],pest or weed control at 250 g/ha [14] [%]
Cc1ccc(NC(=O)[C@H]2C(=O)N(C)C[C@@H]2c2cc(F)cc(F)c2)c(F)c1 [Compound 760],0,60,100,100,100,100,0,0,0,0,0,0,0,80,0,50,80,0,0
Cc1ccc([C@H]2CNC(=S)[C@@H]2C(=O)Nc2cccc(F)c2F)cc1C [Compound 765],0,0,100,100,30,80,0,0,0,30,0,0,0,0,40,40,100,20,0
COc1cc([C@H]2CN(C)C(=O)[C@@H]2C(=O)Nc2ccccc2SC)ccc1C(F)(F)F [Compound 769],30,70,70,100,90,100,30,80,30,70,0,0,0,70,30,0,80,15,0
Cc1ccc(NC(=O)[C@H]2C(=O)N(C)C[C@@H]2c2cc(F)cc(F)c2)c(F)c1F [Compound 771],50,80,90,90,90,90,0,0,0,50,40,50,70,90,20,90,100,20,0
